Like-named read-outs stand apart in the source and are kept apart here.
Target: T1R1/T1R3 receptor (Felis catus, UniProt E3UMS2)
Assay: Activation of T1R1/T1R3 receptor by transmembrane compounds alone or with alanine, IMP, GMP, phenylalanine; HEK293 cells, calcium fluorescence (Example 5)
Format: cell-based, cat
Settings: for Max resp % of IMP +Alanine (20 mM): relative to IMP; for Thres +Alanine (20 mM) / Thres +IMP (0.2 mM): threshold concentration; for Max resp % of Ala +IMP (0.2 mM): relative to Ala; for Activity: Table 18, all transmembrane compounds tested, active / N/A (not active)
From the text: Methods: HEK293 cells that stably express T1R3 and inducibly express T1R1 were exposed to transmembrane compounds alone or in combination with one or more amino acids and/or one or more nucleotides to activate the umami receptor. Activation of the T1R1/T1R3 receptor was detected by a change in intracellular calcium levels using a calcium sensitive fluorescent dye. Cells that express T1R3 but not T1R1 were used as a control. A FLIPR® Tetra or a FlexStation® 3 was used for data capture.
In each experiment, serial dilutions of up to 10 mM of the transmembrane compound were added to the T1R1/T1R3-expressing cells.

| Compound | +Alanine (20 mM) Max resp % of IMP (+Alanine (20 mM)) | +Alanine (20 mM) Max resp ΔF/F (+Alanine (20 mM)) | +Alanine (20 mM) Thres (+Alanine (20 mM)) [mM] | Max resp % of IMP +Alanine (20 mM) (+Alanine (20 mM)) [%] | Thres +Alanine (20 mM) (+Alanine (20 mM)) [mM] | +IMP (0.2 mM) Max resp % of Ala | Max resp ΔF/F +IMP (0.2 mM) | Max resp % of Ala +IMP (0.2 mM) [%] | Thres +IMP (0.2 mM) [mM] | Activity | activation of T1R1/T1R3 by the transmembrane compound alone (in words) | EC50 (compound alone in buffer, read-out: EC50 +buffer (alone)) [µM] | EC50 (read-out: +Alanine (20 mM) + IMP (0.2 mM) EC50, +Alanine (20 mM) + IMP (0.2 mM)) [µM] | EC50 (read-out: EC50 +Alanine (20 mM) + IMP (0.2 mM), +Alanine (20 mM) + IMP (0.2 mM)) [µM] | EC50 (read-out: EC50 +Alanine (20 mM), +Alanine (20 mM)) [µM] |
| --- | --- | --- | --- | --- | --- | --- | --- | --- | --- | --- | --- | --- | --- | --- | --- |
| CCOC(=O)C(NC(=O)c1ccc2c(c1)OCO2)C(C)C (centres unmarked) [ethyl 2-(benzo[d][1,3]dioxole-5-carboxamido)-3-methylbutanoate] | 25.6 % of IMP | 0.3175 ΔF/F | 10 | 25.6 | 10 | 52.8 % of Ala | 0.65 ΔF/F | 52.8 | 1 | active |  |  |  |  |  |
| CCC(CC)NC(=O)c1ccc(C)c(C)c1 [3,4-dimethyl-N-(pentan-3-yl)benzamide; N-(1-ethylpropyl)-3,4-dimethylbenzamide] | 97.8 % of IMP | 1.2150 ΔF/F | 3 |  |  | 125.7 % of Ala |  |  |  |  |  |  |  |  |  |
| CCCC(C)NC(=O)/C=C/c1ccc(OC)c(OC)c1 (centres unmarked) [(E)-3-(3,4-dimethoxyphenyl)-N-(pentan-2-yl)acrylamide; (2E)-3-(3,4-dimethoxyphenyl)-N-(pentan-2-yl)prop-2-enamide] | 35.2 % of IMP | 0.4375 ΔF/F | 1 |  |  | 86.9 % of Ala |  |  |  |  |  |  |  |  |  |
| COc1cc(C(=O)NC(C(N)=O)c2ccccc2)cc(Cl)c1OC (centres unmarked) [N-(2-amino-2-oxo-1-phenylethyl)-3-chloro-4,5-dimethoxybenzamide] |  |  |  |  |  | 49.4 % of Ala | 0.415 ΔF/F | 49.4 | 0.17 | active | failed to activate |  |  |  |  |
| CC1CCCC(NC(=O)c2ccc3c(c2)OCO3)C1C (centres unmarked) [N-(2,3-dimethylcyclohexyl) benzo[d][1,3]dioxole-5-carboxamide] | 18.1 % of IMP | 0.225 ΔF/F | 3 | 18.1 | 3 | 95.4 % of Ala | 1.175 ΔF/F | 95.4 | 0.275 | active |  |  |  |  |  |
| CCCC(C)NC(=O)c1ccc(OC)c(C)c1 (centres unmarked) [4-methoxy-3-methyl-N-(pentan-2-yl)benzamide] | 126.0 % of IMP | 1.5650 ΔF/F | 0.050 | 126.0 | 0.050 | 128.9 % of Ala | 1.5875 ΔF/F | 128.9 | 0.025 | active |  |  |  |  |  |
| CCC(CC)NC(=O)c1ccc(Br)o1 [5-bromo-N-(pentan-3-yl)furan-2-carboxamide] | 126.8 % of IMP | 1.575 ΔF/F | 1 | 126.8 | 1 | 149.6 % of Ala | 1.8425 ΔF/F | 149.6 | 0.3 | active |  |  |  |  |  |
| COc1ccc(/C=C/C(=O)NC2CCCCC2C)cc1 (centres unmarked) [(E)-3-(4-methoxyphenyl)-N-(2-methylcyclohexyl) acrylamide] | 63.2 % of IMP | 0.785 ΔF/F | 3 | 63.2 | 3 | 144.0 % of Ala | 1.7725 ΔF/F | 144.0 | 0.3 | active |  |  |  |  |  |
| O=C(CN1C(=O)C(=O)N(Cc2ccccc2)C1=O)c1ccccc1 [1-benzyl-3-(2-oxo-2-phenylethyl)imidazolidine-2,4,5-trione] | 127.6 % of IMP | 1.3 ΔF/F | 1 | 127.6 | 1 | 135.7 % of Ala | 1.140 ΔF/F | 135.7 | 0.08 | active |  | > 1000 | 330 ± 40 | 330 | > 1000 |
| O=C(NCCc1ccccc1)C(=O)NCc1cccnc1 [N1-phenethyl-N2-(pyridin-3-ylmethyl)oxalamide; N-(2-phenylethyl)-N′-(pyridin-3-ylmethyl)ethanediamide] | 30.2 % of IMP | 0.3750 ΔF/F | 1 |  |  | 61.9 % of Ala |  |  |  |  |  |  |  |  |  |
| CCC(CC)NC(=O)c1ccc(OC)c(OC)c1 [3,4-dimethoxy-N-(pentan-3-yl)benzamide] | 43.9 % of IMP | 0.545 ΔF/F | 0.3 | 43.9 | 0.3 | 81.0 % of Ala | 0.9975 ΔF/F | 81.0 | 0.5 | active |  |  |  |  |  |
| O=C(Nc1ccccc1Br)N[C@@H]1c2ccccc2C[C@@H]1O (stereo in doubt) [1-(2-bromophenyl)-3-((1R,2S)-2-hydroxy-2,3-dihydro-1H-inden-1-yl)urea] | 33.0 % of IMP | 0.3 ΔF/F | 3 | 33.0 | 3 | 44.9 % of Ala | 0.378 ΔF/F | 44.9 | 3 | active |  |  |  |  |  |
| CCCC(CCC)C(=O)Nc1ccc2c(c1)OCO2 [N-(benzo[d][1,3]dioxol-5-yl)-2-propylpentanamide] |  |  |  |  |  | 108.0 % of Ala | 0.908 ΔF/F | 108.0 | 0.0675 | active | function as an agonist |  |  |  |  |
| CCC(CC)NC(=O)/C=C/c1ccc(OC)cc1 [(E)-3-(4-methoxyphenyl)-N-(pentan-3-yl)acrylamide] | 64.1 % of IMP | 0.7 ΔF/F | 0.148 | 64.1 | 0.148 | 171.7 % of Ala | 1.443 ΔF/F | 171.7 | 0.0375 | active |  |  |  |  |  |
| COC(=O)C(NC(=O)/C=C/c1cccs1)C(C)C (centres unmarked) [(E)-methyl 3-methyl-2-(3-(thiophen-2-yl)acrylamido)butanoate] | 9.5 % of IMP | 0.1175 ΔF/F | 10 | 9.5 | 10 | 59.9 % of Ala | 0.7375 ΔF/F | 59.9 | 1 | active |  |  |  |  |  |

— patent US11185100B2 (priority 2014, dated 2021)
